The subject of assay [1] is U937 human histiocytic leukemia cell line. Description: Inhibition of TSQ induced necroptosis in U937 cells (CellTitre-Glo). Conditions: Homo sapiens, U-937, TSQ cocktail (TNF, Smac mimetic, Q-VD-OPh), 48 hours, read-out: Inhibition of TSQ-induced necroptosis (IC50 cell-based assay). As for the experimental part: Cellular Assay: Screening Compounds for Inhibition of TSQ Induced Necroptosis, 384 Well Plate Format.
(§1) • Cell Line ID: U937 human histiocytic leukemia cell line. • Cell Concentration (cells/well): Final cell density is 20000 cells per well. • Cell growth medium: HT-RPMI medium+7.4% Fetal Bovine Serum (FBS). Cells are cultured in Corning 150 cm^2 tissue culture flasks with vented caps at 37° C./5% CO2. • Incubation: Plates were incubated at 37° C./5% CO2 in a humidified incubator for 48 hours following addition of compounds and death stimuli (TSQ cocktail). • Compound concentration: 36 μM starting concentration, 1:3 dilution, 10 point • DMSO final concentration (% v/v): 0.3%. Compounds in TSQ Cocktail (T: TNF; S: Smac Mimetic; Q: Q-VD-OPh) and their Final Concentrations: • hTNF-Fc (100 ng/ml)—produced by standard procedures as shown in Bossen et al., J. Biol. Chem., 2006, 281(20), 13964-13971. • Compound A (500 nM) —Smac mimetic, Tetralogic and SYNthesis med chem • Q-VD-OPh (10 μM) —MP Biomedicals
(§2) The cellular assay was carried out according to the following steps: • 1. Each well was prepared by sequential addition of: • a. DMSO (control; columns 1-2 and 23-24) or compound in DMSO—addition was performed using acoustic transfer of nL volumes of stock compound to give final test concentrations of 36, 12, 4, 1.3, 0.44, 0.148, 0.049, 0.016, 0.005 and 0.002 μM. All wells were backfilled with DMSO to a final total volume in the well of 100 nL. • b. Following compound/DMSO addition in step (a), 40 μL of cell suspension (5×10^5 cells/mL) was added to provide a final cell concentration of 20,000 cells per well, and • c. Following cell addition in step (b), 10 μL of 5×TSQ cocktail (except to positive controls; columns 1 and 23) was added to each well. • 2. After 48 hours, plate was removed from the 37° C. incubator and equilibrated to room temperature for 45 minutes. • 3. 15 μL of room temperature CellTitre-Glo2™ (Promega™) was added to each well. • 4. Shook plates for 2 minutes (˜600 rpm) and incubated at room temperature for 15 minutes to allow signal to stabilise. • 5. Read luminescence readout on a plate reader.
Percent viability was calculated for each compound according to equation (2): […]
(§3) 10 point titration curves were fitted with the 4 parameter logistic nonlinear regression model and the IC50 reported reflect the inflection point of the curve for curve fitting.
(§4) • Assay involving the TSQ cocktail (T: TNF; S: Smac mimetic; Q: Q-VD-OPh): TSQ treatment ensures that cells specifically undergo necroptotic cell death. TNF activates the TNF receptor, Smac mimetic directs the signal away from proinflammatory signaling and toward the RIPK1/RIPK3-mediated cell death pathways, and Q-VD-OPh ensures that the apoptotic response is blocked leaving only the programmed necrosis response. The compounds' activity (solution in DMSO) tested in this TSQ-induced assay was evaluated by determining the number of viable cells in culture by measuring the amount of ATP present as measured by CelltiterGlo. • Counter screen: In parallel, all compounds were tested for their ability to affect cell viability. The same U937 cells were treated with compound in DMSO without the TSQ cocktail. This counter screen enabled evaluation of off-target effects. In this case, cell viability was measured by CelltiterGlo.

The next assay addresses human MLKL (full length) (Homo sapiens (Human), UniProt Q8NB16). Kind of assay: KINOMEscan binding assay, human MLKL (full length). As to conditions: equilibrium dissociation constant. The gist of the method: (§5)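 Binding constants were derived by fitting qPCR-quantified bead-retained kinase against compound concentration to the Hill equation, slope set at −1. Compound series were 3-fold over 11 points with 1% DMSO; most top concentrations were 30,000 nM. Kinases were T7-phage-tagged or HEK-293-produced with DNA tags.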

For the next assay, the target named is human RIPK3 (Homo sapiens (Human), UniProt Q9Y572). Kind of assay: KINOMEscan binding assay, human RIPK3. As to conditions: equilibrium dissociation constant. The gist of the method: as §5
Another assay concerns the target human RIPK1 (Homo sapiens (Human), UniProt Q13546). Kind of assay: KINOMEscan binding assay, human RIPK1. As to conditions: equilibrium dissociation constant. The gist of the method:
as §5

A further assay has as its system U937 cells. Kind of assay: Counter screen: U937 cell viability without TSQ cocktail (off-target effect). The arrangement: species or system human. Conditions: Homo sapiens, U-937, compound without TSQ cocktail, read-out: Off-target effect (IC50 cell-based assay). As for the experimental part: as §1, §2, §3, §4
For orientation: Counterscreens check selectivity or assay interference.

human RIPK3, sequence (Q9Y572 whole entry): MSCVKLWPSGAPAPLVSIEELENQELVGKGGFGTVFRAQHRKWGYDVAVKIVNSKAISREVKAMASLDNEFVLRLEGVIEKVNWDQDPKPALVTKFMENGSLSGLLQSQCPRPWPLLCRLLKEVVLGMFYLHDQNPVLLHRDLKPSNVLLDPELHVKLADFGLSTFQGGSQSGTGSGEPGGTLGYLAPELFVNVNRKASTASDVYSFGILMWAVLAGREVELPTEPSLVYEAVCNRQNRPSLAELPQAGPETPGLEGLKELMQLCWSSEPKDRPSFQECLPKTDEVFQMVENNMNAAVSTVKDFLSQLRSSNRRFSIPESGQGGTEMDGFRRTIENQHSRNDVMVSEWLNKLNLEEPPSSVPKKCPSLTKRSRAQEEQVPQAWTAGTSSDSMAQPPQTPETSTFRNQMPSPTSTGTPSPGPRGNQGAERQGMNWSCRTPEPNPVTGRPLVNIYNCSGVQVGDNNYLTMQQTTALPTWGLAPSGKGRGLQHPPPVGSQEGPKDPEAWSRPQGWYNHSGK
human MLKL (full length), sequence (Q8NB16 whole entry): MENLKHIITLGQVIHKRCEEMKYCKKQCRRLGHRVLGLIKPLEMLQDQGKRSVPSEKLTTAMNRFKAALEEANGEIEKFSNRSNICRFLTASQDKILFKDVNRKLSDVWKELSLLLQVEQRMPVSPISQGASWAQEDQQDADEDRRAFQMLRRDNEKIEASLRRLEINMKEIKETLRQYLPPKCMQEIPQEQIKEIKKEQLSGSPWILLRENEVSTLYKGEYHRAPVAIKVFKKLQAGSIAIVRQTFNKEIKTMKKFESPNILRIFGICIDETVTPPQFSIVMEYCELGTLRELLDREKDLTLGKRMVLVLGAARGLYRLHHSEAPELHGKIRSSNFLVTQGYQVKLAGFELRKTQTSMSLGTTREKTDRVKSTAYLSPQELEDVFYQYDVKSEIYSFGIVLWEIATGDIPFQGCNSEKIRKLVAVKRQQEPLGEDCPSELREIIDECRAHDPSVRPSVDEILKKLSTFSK
human RIPK1, sequence (Q13546 whole entry): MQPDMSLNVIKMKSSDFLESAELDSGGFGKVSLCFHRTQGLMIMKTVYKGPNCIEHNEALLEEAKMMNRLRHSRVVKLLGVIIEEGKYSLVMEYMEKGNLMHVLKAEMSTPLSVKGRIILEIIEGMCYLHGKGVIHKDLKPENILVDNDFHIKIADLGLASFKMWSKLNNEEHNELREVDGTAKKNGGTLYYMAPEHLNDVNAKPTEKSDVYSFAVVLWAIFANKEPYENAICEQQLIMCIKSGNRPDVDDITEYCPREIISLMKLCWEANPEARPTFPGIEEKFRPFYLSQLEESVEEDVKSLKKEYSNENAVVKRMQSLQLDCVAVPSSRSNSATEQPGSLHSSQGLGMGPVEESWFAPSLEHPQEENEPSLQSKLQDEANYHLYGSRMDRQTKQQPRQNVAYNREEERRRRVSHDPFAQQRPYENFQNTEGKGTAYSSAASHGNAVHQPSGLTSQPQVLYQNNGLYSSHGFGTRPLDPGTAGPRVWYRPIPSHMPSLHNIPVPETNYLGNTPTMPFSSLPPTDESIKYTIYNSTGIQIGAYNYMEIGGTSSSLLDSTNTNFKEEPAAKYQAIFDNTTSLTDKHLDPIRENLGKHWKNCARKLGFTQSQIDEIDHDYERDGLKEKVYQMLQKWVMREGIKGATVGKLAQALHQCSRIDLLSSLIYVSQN

`C[C@H](Oc1cc(-c2nn(C)c3c(-c4cnc(N(C)C)nc4)cnc(N)c23)ccc1NS(=O)(=O)C(F)F)c1ccc(F)cc1` [Compound 106, (S)-N-(4-(4-amino-7-(2-(dimethylamino)pyrimidin-5-yl)-1-methyl-1H-pyrazolo[4,3-c]pyridin-3-yl)-2-(1-(4-fluorophenyl)ethoxy)phenyl)-1,1-difluoromethanesulfonamide]: the figures for the 50% inhibitory concentration (IC50) (in assay [1]; in the assay on U937 cells) were 10 to 1000 nM and over 10000 nM, respectively. In addition, the Kd – broadly, the constant that tells how readily two partners part at equilibrium – at human MLKL (full length) is 1 to 100 nM; on human RIPK3, over 10000 nM; on human RIPK1, over 10000 nM.
Regarding `CCS(=O)(=O)Nc1ccc(-c2nn(C)c3c(-c4cnn(C5CCOCC5)c4)cnc(N)c23)cc1O[C@@H](C)c1ccc(F)cc1` [Compound 45, (S)-N-(4-(4-amino-1-methyl-7-(1-(tetrahydro-2H-pyran-4-yl)-1H-pyrazol-4-yl)-1H-pyrazolo[4,3-c]pyridin-3-yl)-2-(1-(4-fluorophenyl)ethoxy)phenyl)ethanesulfonamide], the IC50 (as a rule, the concentration at which inhibition is half-maximal) was 10 to 1000 nM in assay [1] and over 10000 nM with U937 cells. For the same molecule, the dissociation constant Kd was 1 to 100 nM on human MLKL (full length), over 10000 nM on human RIPK3 and over 10000 nM at human RIPK1.
`C[C@H](Oc1cc(-c2nn(C)c3c(-c4cccnc4)cnc(N)c23)ccc1NS(=O)(=O)C(F)F)c1ccc(F)cc1` [Compound 25, (S)-N-(4-(4-amino-1-methyl-7-(pyridin-3-yl)-1H-pyrazolo[4,3-c]pyridin-3-yl)-2-(1-(4-fluorophenyl)ethoxy)phenyl)-1,1-difluoromethanesulfonamide]: the IC50 in assay [1] is 10 to 1000 nM; in the assay with U937 cells, over 10000 nM. In addition, the values for the equilibrium dissociation constant (Kd) at human MLKL (full length), at human RIPK3 and at human RIPK1 were under 1 nM, over 10000 nM and over 10000 nM, respectively.
Regarding `C[C@H](Oc1cc(-c2nn(C)c3c(-c4cc(C#N)n(C)c4)cnc(N)c23)ccc1NS(=O)(=O)C(F)F)c1ccc(F)cc1` [Compound 83, (S)-N-(4-(4-amino-7-(5-cyano-1-methyl-1H-pyrrol-3-yl)-1-methyl-1H-pyrazolo[4,3-c]pyridin-3-yl)-2-(1-(4-fluorophenyl)ethoxy)phenyl)-1,1-difluoromethanesulfonamide], the IC50 in assay [1] is 10 to 1000 nM; in the assay on U937 cells, over 10000 nM. For the same molecule, the results for the Kd on human MLKL (full length), at human RIPK3 and at human RIPK1 were 1 to 100 nM, over 10000 nM and over 10000 nM, respectively.
Consider `C[C@H](Oc1cc(-c2nn(C)c3c(-c4ccncn4)cnc(N)c23)ccc1NS(=O)(=O)C(F)F)c1ccc(F)cc1` [Compound 40, (S)—N-(4-(4-amino-1-methyl-7-(pyrimidin-4-yl)-1H-pyrazolo[4,3-c]pyridin-3-yl)-2-(1-(4-fluorophenyl)ethoxy)phenyl)-1,1-difluoromethanesulfonamide], for which the values for the IC50 (in assay [1]; with U937 cells) were under 10 nM and over 10000 nM, respectively. Further, the Kd on human MLKL (full length) is under 1 nM; at human RIPK3, over 10000 nM; on human RIPK1, over 10000 nM.
As for `C[C@H](Oc1cc(-c2nn(C)c3c(C4CCN(C)CC4)cnc(N)c23)ccc1NS(=O)(=O)C(F)F)c1ccc(F)cc1` [Compound 42, (S)—N-(4-(4-amino-1-methyl-7-(1-methylpiperidin-4-yl)-1H-pyrazolo[4,3-c]pyridin-3-yl)-2-(1-(4-fluorophenyl)ethoxy)phenyl)-1,1-difluoromethanesulfonamide], the values for the half-inhibitory concentration (IC50) (in assay [1]; in the assay with U937 cells) were 1000 to 10000 nM and over 10000 nM, respectively. In addition, the figures for the dissociation constant (Kd) at human MLKL (full length), on human RIPK3 and at human RIPK1 were 100 to 10000 nM, over 10000 nM and over 10000 nM, respectively.
With `C[C@H](Oc1cc(-c2nn(C)c3c(-c4cnn(CCN(C)C)c4)cnc(N)c23)ccc1NS(=O)(=O)C(F)F)c1ccc(F)cc1` [Compound 100, (S)-N-(4-(4-amino-7-(1-(2-(dimethylamino)ethyl)-1H-pyrazol-4-yl)-1-methyl-1H-pyrazolo[4,3-c]pyridin-3-yl)-2-(1-(4-fluorophenyl)ethoxy)phenyl)-1,1-difluoromethanesulfonamide], the half-inhibitory concentration (IC50) in assay [1] was under 10 nM; with U937 cells, over 10000 nM. The equilibrium dissociation constant (Kd) at human MLKL (full length) is under 1 nM; on human RIPK3, over 10000 nM; on human RIPK1, over 10000 nM.
For the molecule `C[C@H](Oc1cc(-c2nn(C)c3c(C4=CCOCC4)cnc(N)c23)ccc1NS(=O)(=O)C(F)F)c1ccc(F)cc1` [Compound 43, (S)-N-(4-(4-amino-7-(3,6-dihydro-2H-pyran-4-yl)-1-methyl-1H-pyrazolo[4,3-c]pyridin-3-yl)-2-(1-(4-fluorophenyl)ethoxy)phenyl)-1,1-difluoromethanesulfonamide], the concentration for half-maximal inhibition (IC50) in assay [1] is 10 to 1000 nM; in the assay with U937 cells it was over 10000 nM. Also, the values for the equilibrium dissociation constant (Kd) on human MLKL (full length), at human RIPK3 and on human RIPK1 were 1 to 100 nM, over 10000 nM and over 10000 nM, respectively.
For the molecule `C[C@H](Oc1cc(-c2nn(C)c3c(C#CC4CCN(CC(F)(F)F)CC4)cnc(N)c23)ccc1NS(=O)(=O)C(F)F)c1ccc(F)cc1` [Compound 128, (S)-N-(4-(4-amino-1-methyl-7-((1-(2,2,2-trifluoroethyl)piperidin-4-yl)ethynyl)-1H-pyrazolo[4,3-c]pyridin-3-yl)-2-(1-(4-fluorophenyl)ethoxy)phenyl)-1,1-difluoromethanesulfonamide], the results for the IC50 (in assay [1]; in the assay on U937 cells) were 10 to 1000 nM and over 10000 nM, respectively. Besides, the Kd at human MLKL (full length) is 1 to 100 nM; at human RIPK3 it was over 10000 nM; at human RIPK1, over 10000 nM.
In the case of `C[C@H](Oc1cc(-c2nn(C)c3c(-c4cnn(C(F)(F)F)c4)cnc(N)c23)ccc1NS(=O)(=O)C(F)F)c1ccc(F)cc1` [Compound 134, (S)-N-(4-(4-amino-1-methyl-7-(1-(trifluoromethyl)-1H-pyrazol-4-yl)-1H-pyrazolo[4,3-c]pyridin-3-yl)-2-(1-(4-fluorophenyl)ethoxy)phenyl)-1,1-difluoromethanesulfonamide], the IC50 in assay [1] was 10 to 1000 nM; in the assay on U937 cells, over 10000 nM. In addition, the Kd at human MLKL (full length) was 1 to 100 nM; at human RIPK3, over 10000 nM; at human RIPK1 it was over 10000 nM.
`C[C@H](Oc1cc(-c2nn(C)c3c(-c4ccc5[nH]c(=O)n(C)c5c4)cnc(N)c23)ccc1NS(=O)(=O)C(F)F)c1ccc(F)cc1` [Compound 160, (S)-N-(4-(4-amino-1-methyl-7-(3-methyl-2-oxo-2,3-dihydro-1H-benzo[d]imidazol-5-yl)-1H-pyrazolo[4,3-c]pyridin-3-yl)-2-(1-(4-fluorophenyl)ethoxy)phenyl)-1,1-difluoromethanesulfonamide]: the IC50 in assay [1] was 10 to 1000 nM; in the assay on U937 cells, over 10000 nM. For the same molecule, the Kd on human MLKL (full length) is under 1 nM; on human RIPK3, over 10000 nM; at human RIPK1 it was over 10000 nM.
`COCC(Oc1cc(-c2nn(C)c3c(-c4cnn(C5CCOCC5)c4)cnc(N)c23)ccc1NS(=O)(=O)C(F)F)c1ccc(F)cc1` (racemic) [Compound 102, N-(4-(4-amino-1-methyl-7-(1-(tetrahydro-2H-pyran-4-yl)-1H-pyrazol-4-yl)-1H-pyrazolo[4,3-c]pyridin-3-yl)-2-(1-(4-fluorophenyl)-2-methoxyethoxy)phenyl)-1,1-difluoromethanesulfonamide]: the values for the half-maximal inhibitory concentration (IC50) (in assay [1]; in the assay on U937 cells) were 10 to 1000 nM and over 10000 nM, respectively. For the same molecule, the results for the Kd at human MLKL (full length), on human RIPK3 and at human RIPK1 were under 1 nM, over 10000 nM and over 10000 nM, respectively.
